Values quoted from earlier work, collected in patent US20060211662A1, “Combination therapy for topical application in the treatment of age-related macular degeneration and ocular hypertension” (priority 2005, published 2006).

settings: relative to methyltestosterone

Row | SMILES | anabolic activity as percent of methyltestosterone [%]
1 | C[C@]12COC(=O)C[C@@H]1CC[C@@H]1[C@@H]2CC[C@@]2(C)[C@H]1CC[C@]2(C)O [oxandrolone, 17 alpha-methyl-17β-hydroxy-2-oxa-5 alpha-androstan-3-one] | 322

same assay, conditions: relative to standards (typically testosterone)

Row | SMILES | anabolic activity relative to standards
2 | CCC(=O)O[C@H]1CC[C@H]2[C@@H]3CCC4=CC(=O)CC[C@@H]4[C@H]3CC[C@]12C [19-nortestosterone propionate] | unchanged
3 | C[C@]12CCC(=O)C[C@@H]1CC[C@@H]1[C@@H]2CC[C@]2(C)[C@@H](O)CC[C@@H]12 [dihydrotestosterone] | enhanced
4 | C[C@]1(O)CC[C@H]2[C@@H]3CCC4=CC(=O)CC[C@]4(C)[C@@]3(F)[C@@H](O)C[C@@]21C [fluoxymesterone] | even larger increase
5 | C[C@]12COC(=O)C[C@@H]1CC[C@@H]1[C@@H]2CC[C@@]2(C)[C@H]1CC[C@]2(C)O [oxandrolone, 17 alpha-methyl-17β-hydroxy-2-oxa-5 alpha-androstan-3-one] | increased
6 | C[C@]12C/C(=C/O)C(=O)C[C@@H]1CC[C@@H]1[C@@H]2CC[C@@]2(C)[C@H]1CC[C@]2(C)O [oxymetholone] | enhanced
7 | C[C@]12Cc3c[nH]nc3C[C@@H]1CC[C@@H]1[C@@H]2CC[C@@]2(C)[C@H]1CC[C@]2(C)O [stanozolol] | increased

settings: relative to methyltestosterone; remark: another data set of the same source

Row | SMILES | androgenic activity as percent of methyltestosterone [%]
8 | C[C@]12COC(=O)C[C@@H]1CC[C@@H]1[C@@H]2CC[C@@]2(C)[C@H]1CC[C@]2(C)O [oxandrolone, 17 alpha-methyl-17β-hydroxy-2-oxa-5 alpha-androstan-3-one] | 24

same assay, conditions: relative to standards (typically testosterone)

Row | SMILES | androgenic (virilizing) activity relative to standards
9 | CCC(=O)O[C@H]1CC[C@H]2[C@@H]3CCC4=CC(=O)CC[C@@H]4[C@H]3CC[C@]12C [19-nortestosterone propionate] | decreased
10 | C[C@]12CCC(=O)C[C@@H]1CC[C@@H]1[C@@H]2CC[C@]2(C)[C@@H](O)CC[C@@H]12 [dihydrotestosterone] | unchanged
11 | C[C@]1(O)CC[C@H]2[C@@H]3CCC4=CC(=O)CC[C@]4(C)[C@@]3(F)[C@@H](O)C[C@@]21C [fluoxymesterone] | augmented
12 | C[C@]12COC(=O)C[C@@H]1CC[C@@H]1[C@@H]2CC[C@@]2(C)[C@H]1CC[C@]2(C)O [oxandrolone, 17 alpha-methyl-17β-hydroxy-2-oxa-5 alpha-androstan-3-one] | decreased
13 | C[C@]12C/C(=C/O)C(=O)C[C@@H]1CC[C@@H]1[C@@H]2CC[C@@]2(C)[C@H]1CC[C@]2(C)O [oxymetholone] | unchanged
14 | C[C@]12Cc3c[nH]nc3C[C@@H]1CC[C@@H]1[C@@H]2CC[C@@]2(C)[C@H]1CC[C@]2(C)O [stanozolol] | decreased
